17 molecules from PubChem BioAssay AID330 (DTP/NCI, 2004) can be followed below.

The structures appear in SMILES notation. Values joined by “and” are separate entries in the source; they are usually repeats but may differ in a detail not shown here. Identical values can stand only once. Toxic doses and inconclusive results are not listed.

This assay has as its system P388 leukemia ip, CD2F1 mice, survival T/C. Nature of the assay: NCI In Vivo Anticancer Drug Screen. Data for tumor model P388 Leukemia (intraperitoneal) in CD2F1 (CDF1) mice. The following applies: endpoint: median survival time, higher = longer survival. An outline of the steps: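 Mice carrying the transplanted tumor received test compound or vehicle. Survival was recorded in each group, and the value is the treated-group measurement divided by that of the vehicle-treated control group.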

[1] abbreviates: dose: 50.0 mg/kg/injection, schedule: Q01DX009 (ip), vehicle: saline with Tween-80.
Where [2] appears, read: dose: 100.0 mg/kg/injection, schedule: Q01DX009 (ip), vehicle: saline with Tween-80.
Where [3] appears, read: dose: 200.0 mg/kg/injection, schedule: Q01DX009 (ip), vehicle: saline with Tween-80.
[4] abbreviates: dose: 50.0 mg/kg/injection, schedule: Q01DX009 (ip), vehicle: Klucel (hydroxypropylcellulose) (HPC).
The mark [5] stands for this setting: dose: 100.0 mg/kg/injection, schedule: Q01DX009 (ip), vehicle: Klucel (hydroxypropylcellulose) (HPC).
[6] abbreviates: dose: 200.0 mg/kg/injection, schedule: Q01DX009 (ip), vehicle: Klucel (hydroxypropylcellulose) (HPC).
Where [7] appears, read: dose: 50.0 mg/kg/injection, schedule: Q01DX009 (ip), vehicle: saline.
[8] abbreviates: dose: 100.0 mg/kg/injection, schedule: Q01DX009 (ip), vehicle: saline.
[9] abbreviates: dose: 200.0 mg/kg/injection, schedule: Q01DX009 (ip), vehicle: saline.
The mark [10] stands for this setting: dose: 400.0 mg/kg/injection, schedule: Q01DX009 (ip), vehicle: Klucel (hydroxypropylcellulose) (HPC).
The mark [11] stands for this setting: dose: 50.0 mg/kg/injection, schedule: Q01DX005 (ip), vehicle: Klucel (hydroxypropylcellulose) (HPC).
[12] abbreviates: dose: 100.0 mg/kg/injection, schedule: Q01DX005 (ip), vehicle: Klucel (hydroxypropylcellulose) (HPC).
The mark [13] stands for this setting: dose: 12.5 mg/kg/injection, schedule: Q01DX009 (ip), vehicle: saline with Tween-80.
Setting [14] is: dose: 25.0 mg/kg/injection, schedule: Q01DX009 (ip), vehicle: saline with Tween-80.

Turning to `CC(C)N(C(N)=O)c1ccc2c(c1)OCO2`, the T/C is, setting by setting: under setting [1], 98 % of control; under setting [2], 107 % of control; under setting [3], 98 % of control.

`O=C(C[n+]1cccc2ccccc21)c1ccc(F)cc1`: the T/C is 119 % of control under setting [4], 97 % of control under setting [5] and 91 % of control under setting [6].

For `O=c1[nH]cccc1O`, the T/C (dose: 16.0 mg/kg/injection, schedule: Q01DX009 (ip), vehicle: saline with Tween-80) was 115 % of control; the T/C (dose: 32.0 mg/kg/injection, schedule: Q01DX009 (ip), vehicle: saline with Tween-80) was 122 % of control; the T/C under setting [4] was 109 % of control and 113 % of control; the T/C under setting [7] is 105 % of control and 110 % of control; the T/C (dose: 64.0 mg/kg/injection, schedule: Q01DX009 (ip), vehicle: saline with Tween-80) was 112 % of control; the T/C under setting [8] was 100 % of control and 111 % of control. Also, the T/C under setting [9] is 112 % of control and 115 % of control; the T/C under setting [10] was 98 % of control; the T/C (dose: 512.0 mg/kg/injection, schedule: Q01DX009 (ip), vehicle: saline with Tween-80) was 153 % of control.

Take `N=C1C=C(N)CS1`: the T/C was 87 % of control under setting [7], 86 % of control under setting [8] and 88 % of control under setting [9].

As for `N=c1nc(-c2ccccc2)c(-c2ccccc2)nn1CC(=O)c1ccc(Br)cc1`, the T/C by setting is: under setting [11], 111 % of control; under setting [12], 94 % of control.

For `O.O.[Cu+2].[Cu+2].[NH-]CCC(=O)[N-]C(Cc1cnc[nH]1)C(=O)O.[NH-]CCC(=O)[N-]C(Cc1cnc[nH]1)C(=O)O` (stereo not given), the T/C is 98 % of control (dose: 6.25 mg/kg/injection, schedule: Q01DX005 (ip), vehicle: Klucel (hydroxypropylcellulose) (HPC)); 97 % of control (dose: 12.5 mg/kg/injection, schedule: Q01DX005 (ip), vehicle: Klucel (hydroxypropylcellulose) (HPC)); 106 % of control (dose: 25.0 mg/kg/injection, schedule: Q01DX005 (ip), vehicle: Klucel (hydroxypropylcellulose) (HPC)).

Regarding `Oc1ccc(C2C=CCC2)cc1C1C=CCC1` (stereo not given), the T/C is, setting by setting: under setting [5], 106 % of control; under setting [6], 116 % of control; under setting [10], 115 % of control.

Turning to `O=[N+]([O-])c1ccc2nc3c4ccccc4c4ccccc4c3nc2c1`, the T/C reads like this: under setting [13], 105 % of control; under setting [14], 116 % of control; under setting [1], 109 % of control and 117 % of control; under setting [2], 105 % of control; under setting [3], 104 % of control.

For the molecule `COc1cc(C2SCC(=O)N2c2nncs2)c([N+](=O)[O-])cc1OC` (stereo not given), the T/C reads like this: under setting [11], 91 % of control; under setting [12], 91 % of control; (dose: 200.0 mg/kg/injection, schedule: Q01DX005 (ip), vehicle: Klucel (hydroxypropylcellulose) (HPC)) 89 % of control.

Regarding `C[N+](C)(CC(=O)Nc1cccc(C(F)(F)F)c1)CC(=O)Nc1cccc(C(F)(F)F)c1`, the T/C is, setting by setting: (dose: 3.13 mg/kg/injection, schedule: Q01DX009 (ip), vehicle: saline sonified) 100 % of control; (dose: 6.25 mg/kg/injection, schedule: Q01DX009 (ip), vehicle: saline sonified) 104 % of control; (dose: 12.5 mg/kg/injection, schedule: Q01DX009 (ip), vehicle: saline sonified) 109 % of control.

On to `Nc1ccc2cc3ccccc3cc2c1`, for which the T/C by setting is: (dose: 5.0 mg/kg/injection, schedule: Q01DX009 (ip), vehicle: saline with Tween-80) 95 % of control; (dose: 5.0 mg/kg/injection, schedule: Q04DX003 (ip), vehicle: saline with Tween-80) 95 % of control; (dose: 10.0 mg/kg/injection, schedule: Q01DX009 (ip), vehicle: saline with Tween-80) 104 % of control; (dose: 10.0 mg/kg/injection, schedule: Q04DX003 (ip), vehicle: saline with Tween-80) 91 % of control; under setting [13], 100 % of control; (dose: 20.0 mg/kg/injection, schedule: Q01DX009 (ip), vehicle: saline with Tween-80) 118 % of control. In addition, the T/C (dose: 20.0 mg/kg/injection, schedule: Q04DX003 (ip), vehicle: saline with Tween-80) is 112 % of control; the T/C under setting [14] is 109 % of control; the T/C (dose: 40.0 mg/kg/injection, schedule: Q01DX009 (ip), vehicle: saline with Tween-80) was 118 % of control; the T/C (dose: 40.0 mg/kg/injection, schedule: Q04DX003 (ip), vehicle: saline with Tween-80) was 112 % of control; the T/C under setting [1] was 109 % of control.

With `OCc1ccc(Cl)cc1Cl`, the T/C under setting [1] was 104 % of control, the T/C under setting [2] was 95 % of control and the T/C under setting [3] is 109 % of control.

Regarding `COC(=O)/C=C(/Sc1nc(Cl)c(Cl)nc1N)C(=O)OC` (tested in a mixture with another compound), the T/C is, setting by setting: (dose: 7.5 mg/kg/injection, schedule: Q01DX005 (ip), vehicle: Klucel (hydroxypropylcellulose) (HPC)) 103 % of control; (dose: 15.0 mg/kg/injection, schedule: Q01DX005 (ip), vehicle: Klucel (hydroxypropylcellulose) (HPC)) 113 % of control; (dose: 30.0 mg/kg/injection, schedule: Q01DX005 (ip), vehicle: Klucel (hydroxypropylcellulose) (HPC)) 113 % of control.

Take `Cc1cc(C)cc(C(N)=O)c1`: the T/C runs as follows: (dose: 100.0 mg/kg/injection, schedule: Q04DX003 (ip), vehicle: saline) 96 % of control; (dose: 200.0 mg/kg/injection, schedule: Q04DX003 (ip), vehicle: saline) 99 % of control.

For the molecule `COC1CCC(NC(C)=O)C(C2CCCCC2)C1` (stereo not given), the T/C is, setting by setting: (dose: 50.0 mg/kg/injection, schedule: Q01DX005 (ip), vehicle: saline with Tween-80) 99 % of control; (dose: 100.0 mg/kg/injection, schedule: Q01DX005 (ip), vehicle: saline with Tween-80) 94 % of control; (dose: 200.0 mg/kg/injection, schedule: Q01DX005 (ip), vehicle: saline with Tween-80) 91 % of control.

For the molecule `Cc1cc(N/N=C/c2ccc(N(CCCl)CCCl)cc2)nc2ccc(Cl)cc12`, the T/C reads like this: under setting [7], 97 % of control; under setting [8], 100 % of control; under setting [9], 100 % of control.

With `CC(=O)OC1C(C)OC(OC(=O)C2CCC3C(C2)OC2(CC(OC(=O)/C=C/c4ccccc4)C(C)CO2)C32CO2)C(OC2OC(C)C(O)C(O)C2O)C1O` (stereo not given), the T/C (dose: 2.5 mg/kg/injection, schedule: Q01DX005 (ip), vehicle: saline + alcohol) was 96 % of control; the T/C (dose: 5.0 mg/kg/injection, schedule: Q01DX005 (ip), vehicle: saline + alcohol) is 102 % of control and 107 % of control; the T/C (dose: 10.0 mg/kg/injection, schedule: Q01DX005 (ip), vehicle: saline + alcohol) is 112 % of control.
